Test results published in the supplement of paper PMC11061612.

Key:
Assay in all cases: Bliss excess, mean over the matrix (fraction); higher = more synergy
[1] = system: NUGC-4 (Gastric Carcinoma)
Method in brief: (§1)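 Cell lines grown in DMEM/F12 or RPMI with 10% FBS were plated in 1536-well plates and held 24 hours at 37°C, 5% CO2 before 72 hours of exposure to two-drug dose matrices, with DMSO typically at 0.2%. CellTiter-Glo 2.0 luminescence gave viability, which was converted to inhibition. Vehicle wells were set to 0 and blank wells to 1. Combination Emax is the second-highest inhibition in the matrix, and Bliss excess is the observed combination effect minus the expected EA + EB − EA·EB, where EA and EB are the single-agent effects.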

A673 (Ewing's Sarcoma) = system: A673 (Ewing's Sarcoma)
Method in brief: as §1

[2] = system: SNU-449 (Hepatocellular Carcinoma)
Method in brief: as §1

[3] = system: MHH-CALL-2 (B-Lymphoblastic Leukemia)
Method in brief: as §1

BE2-M17 (Neuroblastoma) = system: BE2-M17 (Neuroblastoma)
Method in brief: as §1

[4] = system: WSU-NHL (B-Cell Non-Hodgkin's Lymphoma)
Method in brief: as §1

KS-1 (Glioblastoma) = system: KS-1 (Glioblastoma)
Method in brief: as §1

GAMG (Glioblastoma) = system: GAMG (Glioblastoma)
Method in brief: as §1

[5] = system: HeLa (Cervical Carcinoma)
Method in brief: as §1

[6] = system: NCI-H1568 (Lung Adenocarcinoma)
Method in brief: as §1

Row | Compound | Bliss excess [1] | Bliss excess (A673 (Ewing's Sarcoma)) | Bliss excess [2] | Bliss excess [3] | Bliss excess (BE2-M17 (Neuroblastoma)) | Bliss excess [4] | Bliss excess (KS-1 (Glioblastoma)) | Bliss excess (GAMG (Glioblastoma)) | Bliss excess [5] | Bliss excess [6]
1 | COc1nnc2ccc(N3CCC(c4ccc(OCCN5CCN(C)C(=O)[C@H]5C)cc4)CC3)nn12 [AZD5153] + C=CCn1c(=O)c2cnc(Nc3ccc(N4CCN(C)CC4)cc3)nc2n1-c1cccc(C(C)(C)O)n1 [AZD1775] (first compound max 1 µM, partner max 1 µM) | -0.0478 | -0.055 | -0.0033 | -0.0843 | 0.0026 | -0.0255 | -0.0308 | -0.0516 | -0.072 | -0.102
2 | COc1nnc2ccc(N3CCC(c4ccc(OCCN5CCN(C)C(=O)[C@H]5C)cc4)CC3)nn12 [AZD5153] + CC1(C)CCC(CN2CCN(c3ccc(C(=O)NS(=O)(=O)c4ccc(NCC5CCOCC5)c([N+](=O)[O-])c4)c(Oc4cnc5[nH]ccc5c4)c3)CC2)=C(c2ccc(Cl)cc2)C1 [Venetoclax] (first compound max 1 µM, 7x7, partner max 1 µM) | -0.0455 | -0.0706 | -0.0308 | -0.0292 | 0.0308 | 0.0355 | -0.0763 | -0.01 | -0.0574 | -0.0383
3 | COc1nnc2ccc(N3CCC(c4ccc(OCCN5CCN(C)C(=O)[C@H]5C)cc4)CC3)nn12 [AZD5153] + CCN(CCO)CCCOc1ccc2c(Nc3cc(CC(=O)Nc4cccc(F)c4)[nH]n3)ncnc2c1 [AZD2811] (first compound max 1 µM, 7x7, partner max 1 µM) | -0.0508 | -0.0389 | -0.0179 | 0.0191 | 0.102 | -0.0807 | -0.0317 | 0.0004 | -0.0457 | -0.064
4 | COc1nnc2ccc(N3CCC(c4ccc(OCCN5CCN(C)C(=O)[C@H]5C)cc4)CC3)nn12 [AZD5153] + C[C@@H]1COCCN1C2=NC(=NC(=C2)C3(CC3)[S@](=N)(=O)C)C4=C5C=CNC5=NC=C4 [AZD6738] (first compound max 1 µM, 7x7, partner max 10 µM) | 0.0188 | 0.0361 | -0.0048 | -0.0397 | 0.0293 | -0.0621 | -0.0349 | 0.04 | -0.0406 | -0.0822
5 | COc1nnc2ccc(N3CCC(c4ccc(OCCN5CCN(C)C(=O)[C@H]5C)cc4)CC3)nn12 [AZD5153] + Cc1c2c(nn1C)CSCc1cc(n(C)n1)CSc1cc(c3ccccc3c1)OCCCc1c(C(=O)O)n(C)c3c-2c(Cl)ccc13 [AZD5991] (first compound max 1 µM, 7x7, partner max 1 µM) | 0.0081 | 0.0041 | -0.0368 | 0.002 | 0.0101 | 0.01 | -0.0479 | -0.0043 | 0.0151 | -0.0309
6 | COc1nnc2ccc(N3CCC(c4ccc(OCCN5CCN(C)C(=O)[C@H]5C)cc4)CC3)nn12 [AZD5153] + Cn1cnc2c(F)c(Nc3ccc(Br)cc3Cl)c(C(=O)NOCCO)cc21 [Selumetinib] (first compound max 1 µM, 7x7, partner max 10 µM) | 0.0186 | 0.111 | -0.014 | -0.0438 | 0.0139 | 0.0023 | 0.0982 | -0.0192 | -0.0409 | -0.0099
7 | Cc1c2c(nn1C)CSCc1cc(n(C)n1)CSc1cc(c3ccccc3c1)OCCCc1c(C(=O)O)n(C)c3c-2c(Cl)ccc13 [AZD5991] + C1CN(CCC1(C(=O)N[C@@H](CCO)C2=CC=C(C=C2)Cl)N)C3=NC=NC4=C3C=CN4 [Capivasertib] (first compound max 1 µM, 7x7, partner max 3 µM) | -0.0228 | 0.0001 | -0.0238 | 0.0182 | -0.0068 | -0.0777 | -0.0181 | -0.0239 | 0.0059 | -0.012
8 | Cc1c2c(nn1C)CSCc1cc(n(C)n1)CSc1cc(c3ccccc3c1)OCCCc1c(C(=O)O)n(C)c3c-2c(Cl)ccc13 [AZD5991] + C=CCn1c(=O)c2cnc(Nc3ccc(N4CCN(C)CC4)cc3)nc2n1-c1cccc(C(C)(C)O)n1 [AZD1775] (first compound max 1 µM, partner max 1 µM) | -0.0128 | 0.0002 | 0.0317 | 0.0108 | -0.03 | -0.0459 | -0.0553 | -0.0528 | -0.0224 | 0.0349
9 | Cc1c2c(nn1C)CSCc1cc(n(C)n1)CSc1cc(c3ccccc3c1)OCCCc1c(C(=O)O)n(C)c3c-2c(Cl)ccc13 [AZD5991] + CC1(C)CCC(CN2CCN(c3ccc(C(=O)NS(=O)(=O)c4ccc(NCC5CCOCC5)c([N+](=O)[O-])c4)c(Oc4cnc5[nH]ccc5c4)c3)CC2)=C(c2ccc(Cl)cc2)C1 [Venetoclax] (first compound max 1 µM, 7x7, partner max 1 µM) | -0.0621 | 0.0666 | -0.0286 | 0.0043 | 0.0276 | 0.0602 | -0.0307 | -0.0047 | 0.0343 | -0.0334
10 | Cc1c2c(nn1C)CSCc1cc(n(C)n1)CSc1cc(c3ccccc3c1)OCCCc1c(C(=O)O)n(C)c3c-2c(Cl)ccc13 [AZD5991] + CN(C)CCCOc1ccc(-c2ccc3ncc4c(c3c2)n(C2CCOCC2)c(=O)n4C)cn1 [AZD0156] (first compound max 1 µM, 7x7, partner max 1 µM) | -0.0305 | 0.0293 | -0.0243 | 0.0053 | 0.0023 | -0.0375 | -0.0619 | 0.0339 | -0.0266 | -0.0091
